Reference: ChEMBL document CHEMBL1154965, “3-(Arylsulfonyl)-1-(azacyclyl)-1H-indoles are 5-HT(6) receptor modulators” (Bioorg Med Chem Lett, 2010)

Assays:
[1] = biological target: T1, 5-hydroxytryptamine receptor 6 (Homo sapiens, UniProt P50406); assay: Antagonist activity at human 5-HT6 receptor expressed in human HeLa cells assessed as inhibition of 5HT-induced intracellular cAMP level after 10 mins by radioimmunoassay; assay type: functional, cell-based
[2] = biological target: T1, 5-hydroxytryptamine receptor 6; assay: Antagonist activity at human 5-HT6 receptor expressed in human HeLa cells assessed as inhibition of 5HT-induced intracellular cAMP level after 10 mins by radioimmunoassay relative to serotonin; assay type: functional, cell-based
[3] = biological target: T1, 5-hydroxytryptamine receptor 6; assay: Displacement of [3H]LSD from human 5-HT6 receptor expressed in human HeLa cells after 2 hrs; assay type: cell-based
[4] = biological target: T1, 5-hydroxytryptamine receptor 6; assay: Agonist activity at human 5-HT6 receptor expressed in human HeLa cells assessed as effect on 5HT-induced intracellular cAMP level after 10 mins by radioimmunoassay relative to serotonin; assay type: functional, cell-based
[5] = biological target: T1, 5-hydroxytryptamine receptor 6; assay: Agonist activity at human 5-HT6 receptor expressed in human HeLa cells assessed as effect on 5HT-induced intracellular cAMP level after 10 mins by radioimmunoassay; assay type: functional, cell-based

T1 sequence (P50406 whole entry): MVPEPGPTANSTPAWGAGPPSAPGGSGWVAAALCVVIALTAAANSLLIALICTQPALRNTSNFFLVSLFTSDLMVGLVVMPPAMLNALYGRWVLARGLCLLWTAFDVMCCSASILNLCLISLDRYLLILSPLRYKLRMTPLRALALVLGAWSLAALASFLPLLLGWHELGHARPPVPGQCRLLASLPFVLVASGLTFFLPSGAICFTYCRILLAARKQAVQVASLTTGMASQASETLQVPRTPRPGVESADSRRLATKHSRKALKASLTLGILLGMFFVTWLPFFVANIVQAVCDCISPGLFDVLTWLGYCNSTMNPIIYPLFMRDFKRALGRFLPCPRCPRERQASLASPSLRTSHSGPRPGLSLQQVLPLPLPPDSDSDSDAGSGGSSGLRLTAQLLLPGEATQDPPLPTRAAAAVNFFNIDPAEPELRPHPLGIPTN

| Structure (SMILES) | IC50 [1] [µM] | Imax [2] [%] | Ki [3] [µM] | Emax [4] [%] | EC50 [5] [µM] |
| --- | --- | --- | --- | --- | --- |
| CN1CCC(n2cc(S(=O)(=O)c3cccc4ccccc34)c3ccccc32)C1 (stereo not drawn) | 0.06 | 98 | 0.006 | – | – |
| O=S(=O)(c1cn(C2CCCNC2)c2ccccc12)c1cccc2cccnc12 (stereo not drawn) | – | – | 0.0056 | 71 | 0.592 |
| CN1CCC(n2cc(S(=O)(=O)c3cccc4cccnc34)c3ccccc32)C1 (stereo not drawn) | 0.076 | 97 | 0.0028 | – | – |
| O=S(=O)(c1cccc2ccccc12)c1cn(C2CCNC2)c2ccccc12 (stereo not drawn) | 0.107 | 100 | 0.0233 | – | – |
| O=S(=O)(c1ccccc1)c1cn(C2CCCNC2)c2ccccc12 (stereo not drawn) | – | – | – | 99 | 0.082 |
| O=S(=O)(c1cccc(F)c1)c1cn(C2CCCNC2)c2ccc(F)cc12 (stereo not drawn) | 0.018 | 85 | – | – | – |
| CN1CCC(n2cc(S(=O)(=O)c3cccc(F)c3)c3cc(F)ccc32)C1 (stereo not drawn) | 0.094 | 70 | 0.005 | – | – |
| O=S(=O)(c1cccc(F)c1)c1cn(C2CCNC2)c2ccc(F)cc12 (stereo not drawn) | – | – | 0.0096 | 50 | 0.038 |
| CCN1CCCC(n2cc(S(=O)(=O)c3cccc(F)c3)c3cc(OC)ccc32)C1 (stereo not drawn) | – | – | 0.016 | 50 | 0.203 |
| CN1CCCC(n2cc(S(=O)(=O)c3cccc4ccccc34)c3ccccc32)C1 (stereo not drawn) | 0.107 | 87 | 0.0071 | – | – |
| O=S(=O)(c1cn(C2CCNC2)c2ccccc12)c1cccc2cccnc12 (stereo not drawn) | 0.082 | 64 | 0.0015 | – | – |
| O=S(=O)(c1cccc(F)c1)c1cn(C2CCCNC2)c2ccccc12 (stereo not drawn) | – | – | 0.006 | 78 | 0.056 |
| COc1ccc2c(S(=O)(=O)c3cccc(Cl)c3)cn(C3CCNC3)c2c1 (stereo not drawn) | 0.08 | 100 | 0.0046 | – | – |
| O=S(=O)(c1cccc(Cl)c1)c1cn(C2CCNC2)c2ccccc12 (stereo not drawn) | – | – | 0.0032 | 48 | 0.125 |
| O=S(=O)(c1ccccc1)c1cn(C2CCNC2)c2ccccc12 (stereo not drawn) | – | – | 0.005 | 70 | 0.06 |
| O=S(=O)(c1ccccc1)c1cn(C2CCN(Cc3ccccc3)C2)c2ccccc12 (stereo not drawn) | – | – | 0.113 | – | – |
| O=S(=O)(c1cccc(F)c1)c1cn(C2CCNC2)c2ccc(Cl)cc12 (stereo not drawn) | – | – | 0.015 | – | – |
| CN1CCC(n2cc(S(=O)(=O)c3cccc(F)c3)c3ccccc32)C1 (stereo not drawn) | – | – | 0.0035 | 49 | 0.398 |
| CN1CCC(n2cc(S(=O)(=O)c3cccc(Cl)c3)c3ccccc32)C1 (stereo not drawn) | 0.017 | 86 | 0.0013 | – | – |
| O=S(=O)(c1cccc(F)c1)c1cn(C2CCNC2)c2cccc(F)c12 (stereo not drawn) | – | – | 0.018 | – | – |
| O=S(=O)(c1cccc(F)c1)c1cn(C2CCNC2)c2cc(Cl)ccc12 (stereo not drawn) | – | – | 0.072 | – | – |
| COc1ccc2c(c1)c(S(=O)(=O)c1cccc(F)c1)cn2C1CCCNC1 (stereo not drawn) | – | – | 0.0107 | 75 | 0.073 |
| O=S(=O)(c1cccc(F)c1)c1cn(C2CCNC2)c2cc(F)ccc12 (stereo not drawn) | – | – | 0.018 | – | – |
| O=S(=O)(c1cccc(F)c1)c1cn(C2CCNC2)c2ccccc12 (stereo not drawn) | – | – | 0.0047 | 38 | 0.068 |
| CCN1CCCC(n2cc(S(=O)(=O)c3ccccc3)c3ccccc32)C1 (stereo not drawn) | – | – | 0.0073 | 52 | 0.031 |
